Reference: patent US20050192279A1, “Pyridazinones as antagonists of alpha4 integrins” (priority 2004, published 2005)

Columns and labels:
[1] = system: circulating leukocytes; test: In Vivo Model for Leukocytosis; parameters: species or system Balb/c mice; settings: bled 1-1.5 h after administration
Description: In Vivo Model for Leukocytosis
Leukocytosis is the increase in circulating white blood cells (leukocytes). This can be brought about by preventing leukocyte binding to counter-receptor adhesion molecules expressed on high endothelial venules. This cell adhesion occurs between immunoglobulin superfamily molecules and integrins. Relevant examples of these paired interactions include […] Adhesion Molecule-1 and AlphaL Beta2 integrin, Vascular Cell Adhesion Molecule-1 and α4β1 integrin, and Mucosal Addressin Cell Adhesion Molecule-1 and α4β7 integrin, respectively.
In this model, a compound that antagonizes these leukocyte-endothelial interactions will cause an increase in circulating leukocytes, defined as leukocytosis, as measured at 1-1.5 h post-administration. This leukocytosis is indicative that normal lymphocyte or leukocyte emigration from the peripheral circulation was prevented. Similar emigration of cells out of the circulation into inflamed tissues is responsible for the progression and maintainance of the inflammatory state. Leukocytosis is an indication that lymphocyte and leukocyte extravasation is prevented, and is predictive of general anti-inflammatory activity.
One week prior to being tested, 7-10 week old female Balb/c mice, n=8 per group, were bled and randomized according to leukocyte counts. One week later, the mice were adminstered test compound orally or subcutaneously and then bled 1-1.5 h after drug administration, approximately 1 h after the peak blood concentration of the compound occurred. Whole blood, 250-350 microliters, was collected from each mouse into potassium-EDTA serum collection tubes (Becton-Dickenson) and mixed to prevent clotting.
Cell counts and differential counts on the whole blood preparation were performed using an Advia 120 Hematology System (Bayer Diagnostics). Cell counts as total leukocytes and as total lympohcytes were made and compared to counts made from mice dosed with vehicle only. Data were reported as percent of vehicle control for lymphocyte counts and total leukocyte counts.
Statistical analyses were performed using ANOVA with Dunnet's multiple comparison test.

[2] = system: eosinophil peroxidase levels in ear punches; test: PMA-Induced Inflammation in Mouse Ear Skin and Measurement of Eosinophil Peroxidase; format: in vivo, BALB/C mice; settings: total dose 40 mg/kg po bid; ear punches 24 h after PMA
Description: Phorbol 12-Myristate 13-Acetate (PMA)-Induced Inflammation in Mouse Ear Skin and Measurement of Eosinophil Peroxidase
Phorbol 12-myristate 13-acetate (PMA) when applied to skin, generates a vigorous recruitment of immune cells to the site of application. Over a 24 hour period, there is accumulation of fluid and cells to the inflamed site, and thus is a general indicator of an inflammatory response. Among the recruited cells are eosinophils and neutrophils. Eosinophils can migrate into an inflamed or infected tissue via alpha 4 beta 1 integrin interactions with vascular cell adesion molecule-1 (VCAM-1) counter-receptors on vascular endothelial cells, and via alpha 4 beta 7 integrin to mucosal addressin cellular adhesion molecule on vascular endothelial cells in the gastrointestinal tract and mesenteric system. The recruited esoinophils can be quantified by measuring the presence of eosinophil peroxidase in a sample of the homogenized tissue.
Female BALB/C mice are ordered at 6 weeks of age and 16-18 grams from Charles River were used between 6-10 weeks of age. The animals were randomly assigned to groups of 10 (5/box) and housed in groups in plastic cages in a room with 12 h light-dark cycle and controlled temperature and humidity. They received food and water ad libitum.
Phorbol 12-myristate 13-acetate (PMA) was dissolved as 5 mg per mL stock in dimethyl sulfoxide (DMSO) and stored frozen as 20 microliter aliquots. For application to mouse ears, each aliquot was diluted in 2 mL with acetone.
The right ear of each mouse was treated topically with 20 microliters of acetone solution (10 microliters to each side of the ear) containing either 1 microgram of phorbol 12-myristate 13-acetate (PMA) or acetone alone.
Drugs that were tested orally were administered at −1 and +3 hours relative to PMA application.
Mice were sacrificed 24 h after PMA application. The right ear was punched with a 6 mm tissue punch and the tissue was placed in a tube on dry ice and kept frozen until extraction.
One tablet of phosphate citrate buffer was dissolved with urea hydrogen peroxide in 100 ml of water in which one tablet containing 60 mg of o-phenylenediaminedihydrochloride was added.
Ear tissue samples were homogenized in 2 ml of HTAB for 15 sec at speed 5.5 with a Polytron (large head) (Brinkman Instruments). The homogenate was stored at −20° C. until assayed. […]
Samples were typically tested at either a 1:2 or 1:4 dilution made with HTAB. […] Absorbance was read at 490 nm for the specific with subtraction of a 650 nm noise signal using a Thermomax 96-well spectrophotmetric plate reader (Molecular Devices). […]
The inhibition of PMA-induced ear edema was measured by eosinophil peroxidase levels in ear punches. […]

| Compound | Lymphoycte Counts % of Vehicle Control ([1]; 3 mg/kg sc) | Total Leukocyte Count % of Vehicle Control ([1]; 3 mg/kg sc) | Lymphoycte Counts % of Vehicle Control ([1]; 10 mg/kg sc) | Total Leukocyte Count % of Vehicle Control ([1]; 10 mg/kg sc) | Lymphoycte Counts % of Vehicle Control ([1]; 30 mg/kg sc) | Total Leukocyte Count % of Vehicle Control ([1]; 30 mg/kg sc) | % Inh. of Eosinophil Peroxidase [2] |
| --- | --- | --- | --- | --- | --- | --- | --- |
| COc1cnn(CCO)c(=O)c1-c1ccc(C[C@H](NC(=O)OC(C)(C)C)C(=O)O)cc1 [Cpd 120] | 104.3% | 91.8% | 112.8% | 101.7% | 80.0% | 78.0% | – |
| COc1cnn(C)c(=O)c1-c1ccc(C[C@H](NC(=O)c2c(Cl)cccc2Cl)C(=O)O)cc1 [Cpd 17] | 145.3% | 143.3% | 191.7% | 198.7% | 220.2% | 264.5% | 34.9% |
| COc1cnn(C)c(=O)c1-c1ccc(C[C@H](NC(=O)[C@@H]2C3CCC(CC3)N2C(=O)CCc2ccccc2)C(=O)O)cc1 [Cpd 89, 3-[4-(5-Methoxy-2-methyl-3-oxo-2,3-dihydro-pyridazin-4-yl)-phenyl]-2(S)-{[2-(3-phenyl-propionyl)-2-aza-bicyclo[2.2.2]octane-3(S)-carbonyl]-amino}-propionic acid] | – | – | – | – | – | – | 43.5% |
| COC(=O)[C@H](Cc1ccc(-c2c(OC)cnn(C)c2=O)cc1)NC(=O)c1c(Cl)cccc1Cl [Cpd 151] | – | – | – | – | – | – | 26.5% |
